pIC50: −log10 of the molar value. Structures can show the parent of a compound that is named as a salt.
Tests used:
[1] = molecular target: Hsp82 (Saccharomyces cerevisiae, UniProt P02829); assay: Hsp82/ATPase test (malachite green or PK/LDH coupled method); assay type: biochemical; details: 1 μM Hsp82, 250 μM ATP, 37° C.; read-out: Hsp82 ATPase IC50
Experimental: The biochemical activity of the compounds can in particular be evaluated by means of the “Hsp82/ATPase” test described below: The inorganic phosphate released during the hydrolysis of ATP by the ATPase activity of Hsp82 is quantified by the malachite green method. In the presence of this reagent, formation of the inorganic phosphate-molybdate-malachite green complex, which absorbs at a wavelength of 620 nm, occurs. The products to be evaluated are incubated in a reaction volume of 30 μl, in the presence of 1 μM Hsp82 and of 250 μM of substrate (ATP) in a buffer composed of 50 mM Hepes-NaOH (pH 7.5), 1 mM DTT, 5 mM MgCl2 and 50 mM KCl at 37° C. for 60 min. In parallel, an inorganic phosphate range of between 1 and 40 μM is made up in the same buffer. […] After incubation at ambient temperature for 20 min, the absorbance of the various wells is measured using a microplate reader at 620 nm. The inorganic phosphate concentration of each sample is then calculated from the standard curve. The ATPase activity of Hsp82 is expressed as concentration of inorganic phosphate produced in 60 minutes. The effect of the various products tested is expressed as percentage inhibition of the ATPase activity. The formation of ADP due to the ATPase activity of Hsp82 was used to develop another method for evaluating the enzyme activity of this enzyme by application of an enzymatic coupling system involving pyruvate kinase (PK) and lactate dehydrogenase (LDH). In this kinetic-type spectrophotometric method, PK catalyses the formation of ATP and of pyruvate from phosphoenol pyruvate (PEP) and the ADP produced by Hsp82. The pyruvate formed, which is a substrate for LDH, is subsequently converted to lactate in the presence of NADH. In this case, the decrease in the NADH concentration, measured through the decrease in absorbance at the wavelength of 340 nm, is proportional to the concentration of ADP produced by Hsp82. The products tested are incubated in a reaction volume of 100 μl of buffer composed of 100 mM Hepes-NaOH (pH 7.5), 5 mM MgCl2, 1 mM DTT, 150 mM KCl, 0.3 mM NADH, 2.5 mM PEP and 250 μM ATP. This mixture is preincubated at 37° C. for 30 minutes before the addition of 3.77 units of LDH and 3.77 units of PK. The reaction is initiated by addition of the product to be evaluated, in varying concentrations, and of Hsp82, at the concentration of 1 μM. The enzymatic activity of Hsp82 is then measured continuously, in a microplate reader, at 37° C., at the wavelength of 340 nm. The initial rate of the reaction is obtained by measuring the slope of the tangent to the origin of the curve recorded. The enzymatic activity is expressed in μM of ADP formed per minute. The effect of the various products tested is expressed as percentage inhibition of the ATPase activity according to the codification below: […]

[2] = test system: Her2 receptor expression at the surface of SKBr3 cells; assay: phenotypic SKBr3/HER2 cell test (Her2 surface expression by flow cytometry); assay type: cell-based; details: Homo sapiens, SK-BR-3, 24 h incubation, inhibition of Her2 expression
Experimental: The cellular activity of the compounds can in particular be evaluated by means of the phenotypic “SKBr3/HER2” cell test described below:
The SKBr3 […] adenocarcinoma cells, overexpressing the Her2 tyrosine kinase receptor, originate from the ATCC (HTB-30) and are cultured in McCoy's 5A medium supplemented with 10% FBS and 1% L-glutamine.
The cells are seeded in 12-well plates at a proportion of 125 000 cells per well in 1 ml of complete medium. The following day, the products are added at varying concentrations. After incubation for 24 h, the cells are trypsinized, washed with PBS and incubated with 100 ng of anti-Her2 antibody coupled to PE (Phycoerythrin) (BD 340552) for 30 minutes at 4° C. in the dark. The fluorescence due to the expression of the Her2 receptor at the surface of the cells is then read using a FACS Calibur flow cytometer (Becton-Dickinson). The percentage inhibition of Her2 expression as a function of the concentrations of product tested is fitted by the nonlinear regression technique (XLfit, equation 205) in order to measure an IC50 for each product.

Chain of Hsp82 (P02829 whole entry): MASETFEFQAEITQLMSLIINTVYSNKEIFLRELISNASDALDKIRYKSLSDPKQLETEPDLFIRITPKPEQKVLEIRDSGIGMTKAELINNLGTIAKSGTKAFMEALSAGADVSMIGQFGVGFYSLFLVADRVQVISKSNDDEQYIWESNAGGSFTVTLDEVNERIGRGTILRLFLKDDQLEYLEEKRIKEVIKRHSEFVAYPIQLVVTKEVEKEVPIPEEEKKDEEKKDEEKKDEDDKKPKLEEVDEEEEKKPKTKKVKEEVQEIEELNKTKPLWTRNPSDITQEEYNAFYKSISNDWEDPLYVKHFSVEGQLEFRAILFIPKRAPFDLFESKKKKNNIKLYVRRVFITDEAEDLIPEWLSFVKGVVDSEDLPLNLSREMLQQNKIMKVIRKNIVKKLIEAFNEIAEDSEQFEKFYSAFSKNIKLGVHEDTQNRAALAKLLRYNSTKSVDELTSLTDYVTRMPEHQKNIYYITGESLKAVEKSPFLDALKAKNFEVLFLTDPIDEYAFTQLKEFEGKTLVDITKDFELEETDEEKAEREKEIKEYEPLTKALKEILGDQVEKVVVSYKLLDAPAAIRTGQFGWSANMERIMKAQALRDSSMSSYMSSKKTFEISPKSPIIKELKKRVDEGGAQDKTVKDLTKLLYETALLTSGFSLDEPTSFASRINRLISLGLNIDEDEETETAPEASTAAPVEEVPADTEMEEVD

pIC50 [1]	pIC50 [2]	Structure (SMILES)
> 6.00	> 6.00	CC(O)CCNc1cc(-n2c3ccccc3c3c(-c4nc5ccc(F)cc5[nH]4)cccc32)ccc1C(N)=O (racemic) [Example 37, 4-[4-(6-fluoro-1H-benzimidazol-2-yl)-9H-carbazol-9-yl]-2-[3(R,S)hydroxybutylamino)benzamide]
> 6.00	> 6.00	CC(CCO)Nc1cc(-n2c3ccccc3c3c(-c4nc5ccc(F)cc5[nH]4)cccc32)ccc1C(N)=O (racemic) [Example 39]
> 6.00	> 6.00	CC(O)CNc1cc(-n2c3ccccc3c3c(-c4nc5ccc(F)cc5[nH]4)cccc32)ccc1C(N)=O (racemic) [Example 40, 4-[4-(6-fluoro-1H-benzimidazol-2-yl)-9H-carbazol-9-yl]-2-(2(R,S)-hydroxypropylamino)benzamide]
> 6.00	> 6.00	CC(CCO)Nc1cc(-n2c3ccccc3c3c(-c4cnc5ccccc5c4)cccc32)ccc1C(N)=O (racemic) [Example 41, 2-[1-hydroxybutan-3(R,S)-ylamino]-4-[4-(quinolin-3-yl)-9H-carbazol-9-yl]benzamide]
> 6.00	> 6.00	NCCCC[C@@H](N)C(=O)O[C@H]1CC[C@H](Nc2cc(-n3c4ccccc4c4c(-c5nc6ccc(F)cc6[nH]5)cccc43)ccc2C(N)=O)CC1 (stereo in doubt) [Example 36, trifluoroacetate of the 4-trans-{2-carbamoyl-5-[4(6-fluoro-1H-benzimidazol-2-yl)-9H-carbazol-9-yl]phenylamino}cyclohexyl ester of (S)-2,6-diaminohexanoic acid]
> 6.00	> 6.00	NC(=O)c1ccc(-n2c3ccccc3c3c(-c4nc5ccc(F)cc5[nH]4)cccc32)cc1N[C@H]1CC[C@H](O)CC1 [Example 1, 4-[4-(6-fluoro-1H-benzimidazol-2-yl)-9H-carbazol-9-yl]-2-(4-trans-hydroxycyclohexylamino)benzamide]
> 6.00	> 6.00	NC(=O)c1ccc(-n2c3ccccc3c3c(-c4cnc5ccccc5c4)cccc32)cc1N[C@H]1CC[C@H](O)CC1 [Example 2, 2-(4-trans-hydroxycyclohexylamino)-4-[(4-quinolin-3-yl)-9H-carbazol-9-yl]benzamide]
> 6.00	> 6.00	CCN(CC)CCNc1cc(-n2c3ccccc3c3c(-c4nc5ccc(F)cc5[nH]4)cccc32)ccc1C(N)=O [Example 3, 2-(2-diethylaminoethylamino)-4-[4-(6-fluoro-1H-benzimidazol-2-yl)-9H-carbazol-9-yl]benzamide]
> 6.00	> 6.00	NC(=O)c1ccc(-n2c3ccccc3c3c(-c4nc5ccncc5[nH]4)cccc32)cc1N[C@H]1CC[C@H](O)CC1 [Example 4, 2-(4-trans-hydroxycyclohexylamino)-4-[4-(3H-imidazo[4,5-c]pyridin-2-yl)-9H-carbazol-9-yl]benzamide]
5.00 to 6.00	> 6.00	CC(=O)O[C@H]1CC[C@H](Nc2cc(-n3c4ccccc4c4c(-c5nc6ccc(F)cc6[nH]5)cccc43)ccc2C(N)=O)CC1 [Example 5, acetic acid 4-{2-carbamoyl-5-[4-(6-fluoro-1H-benzimidazol-2-yl)-9H-carbazol-9-yl]phenylamino}-trans-cyclohexyl ester]
5.00 to 6.00	> 6.00	NC(=O)c1ccc(-n2c3ccccc3c3c(-c4nc5ccc(F)cc5[nH]4)cccc32)cc1NC1CCCCC1 [Example 6, 2-cyclohexylamino-4-[4-(6-fluoro-1H-benzimidazol-2-yl)-9H-carbazol-9-yl]benzamide]
> 6.00	> 6.00	NC(=O)c1ccc(-n2c3ccccc3c3c(-c4nc5ccc(F)cc5[nH]4)cccc32)cc1NCCOCCO [Example 7, 4-[4-(6-fluoro-1H-benzimidazol-2-yl)-9H-carbazol-9-yl]-2-[2-(2-hydroxyethoxy)ethylamino]benzamide]
> 6.00	> 6.00	NC(=O)c1ccc(-n2c3ccccc3c3c(-c4nc5ccc(F)cc5[nH]4)cccc32)cc1NCCCO [Example 8, 4-[4-(6-fluoro-1H-benzimidazol-2-yl)-9H-carbazol-9-yl]-2-(3-hydroxypropylamino)benzamide]
5.00 to 6.00	> 6.00	NC(=O)c1ccc(-n2c3ccccc3c3c(-c4nc5ccc(F)cc5[nH]4)cccc32)cc1N[C@H]1CC[C@@H](O)CC1 [Example 9, 4-[4-(6-fluoro-1H-benzimidazol-2-yl)-9H-carbazol-9-yl]-2-(4-cis-hydroxycyclohexylamino)benzamide]
> 6.00	5.00 to 6.00	NC(=O)c1ccc(-n2c3ccccc3c3c(-c4nc5cc(F)ccc5[nH]4)cccc32)cc1N [Example 10, 2-amino-4-[4-(6-fluoro-1H-benzimidazol-2-yl)-9H-carbazol-9-yl]benzamide]
> 6.00	> 6.00	NC(=O)c1ccc(-n2c3ccccc3c3c(-c4nc5ccc(F)cc5[nH]4)cccc32)cc1NCCN1CCCC1 [Example 11, 4-[4-(6-fluoro-1H-benzimidazol-2-yl)-9H-carbazol-9-yl]-2-(2-pyrrolidin-1-ylethylamino)benzamide]
5.00 to 6.00	5.00 to 6.00	Nc1n[nH]c2cc(-n3c4ccccc4c4c(-c5nc6ccc(F)cc6[nH]5)cccc43)ccc12 [Example 12, 6-[4-(6-fluoro-1H-benzimidazol-2-yl)-9H-carbazol-9-yl]-1H-indazol-3-ylamine]
5.00 to 6.00	5.00 to 6.00	Nc1noc2cc(-n3c4ccccc4c4c(-c5nc6ccc(F)cc6[nH]5)cccc43)ccc12 [Example 13, 6-[4-(6-fluoro-1H-benzimidazol-2-yl)-9H-carbazol-9-yl]-1,2-benzisoxazol-3-ylamine]
5.00 to 6.00	> 6.00	NC(=O)c1ccc(-n2c3ccccc3c3c(-c4nc5ccc(F)cc5[nH]4)cccc32)cc1F [Example 14, 2-fluoro-4-[4-(6-fluoro-1H-benzimidazol-2-yl)-9H-carbazol-9-yl]benzamide]
5.00 to 6.00	> 6.00	CC(C)(C)OC(=O)CC(=O)O[C@H]1CC[C@H](Nc2cc(-n3c4ccccc4c4c(-c5nc6ccc(F)cc6[nH]5)cccc43)ccc2C(N)=O)CC1 [Example 15, tert-butyl and 4-{2-carbamoyl-5-[4-(6-fluoro-1H-benzimidazol-2-yl)-9H-carbazol-9-yl]phenylamino}cyclohexyl ester of malonic acid]
5.00 to 6.00	5.00 to 6.00	Nc1nn(CCO)c2cc(-n3c4ccccc4c4c(-c5nc6ccc(F)cc6[nH]5)cccc43)ccc12 [Example 16, 2-{3-amino-6-[4-(6-fluoro-1H-benzimidazol-2-yl)-9H-carbazol-9-yl]indazol-1-yl}ethanol]
> 6.00	> 6.00	CC(=O)NCCNc1cc(-n2c3ccccc3c3c(-c4nc5ccc(F)cc5[nH]4)cccc32)ccc1C(N)=O [Example 17, 2-(2-acetylaminoethylamino)-4-[4-(6-fluoro-1H-benzimidazol-2-yl)-9H-carbazol-9-yl]benzamide]
> 6.00		NC(=O)c1ccc(-n2c3ccccc3c3c(-c4cnc(N)nc4)cccc32)cc1NCCCO [Example 56, 4-[4-(2-aminopyrimidin-5-yl)-9H-carbazol-9-yl]-2-[(3-hydroxypropyl)amino]benzamide hydrochloride]
